Results published in patent US20080234280A1, “Use of Mc4 Receptor Agonist Compounds” (priority 2005, published 2008).

Tested on: Female beagle dogs
Assay: dog urethral pressure profilometry (Test A)
Format: in vivo
Conditions: anaesthetised female beagle dog; for Mean peak urethral pressure (PUP): i.v. infusion over 15 minutes in saline; for PUP increase vs. baseline: i.v. infusion over 15 minutes, baseline (vehicle) PUP 30 mmHg
Procedure: Female beagle dogs (10-15 kg) are anaesthetised with sodium pentobarbitone (60 mg/mL solution) administered intravenously (IV) at 0.5 ml/kg via the right cephalic vein. Immediately following induction of anaesthesia the dog is intubated and respiration supported by artificial ventilation with oxygen. End tidal CO2 is monitored continuously, using a Datex CO2/O2 monitor and maintained between 4.5 and 4.8% and body temperature maintained between 37° C. and 38° C. An incision is made in the right medial thigh and a polyethylene catheter (6F) inserted into the right femoral vein for administration of compounds and fluid maintenance; immediately venous access is achieved a bolus IV dose of α-chloralose (1% w/v) is administered at 35 mg/kg. A polyethylene catheter (4F) is inserted into the right femoral artery for blood sampling. An incision is made in the right foreleg and the brachial vein and artery isolated, maintenance of anaesthesia is achieved with α-chloralose/borax administered IV at the rate of 10 mg/kg/h via a polyethylene catheter (6F) inserted into the right brachial vein. A laparotomy is performed from the umbilicus to the top of the pubic symphysis via the midline to expose the peritoneum in order to expose the bladder. Both ureters are cannulated towards the kidneys with polyethylene catheters (6F) and urine collected externally; the bladder is catheterised through the dome with a polyethylene catheter (6F), which is in turn connected to a pressure transducer. In order to maintain constant bladder pressure at 10-15 mmHg, urine is removed and ambient temperature saline infused into the bladder. Immediately following the completion of the surgical procedures a further bolus dose of α-chloralose/borax solution is administered IV at 35 mg/kg and the animal allowed to stabilise for a period period ca. 1 hr, during which time haemodynamic and urological parameters were monitored.
Urethral tone (peak urethral pressure (PUP), functional urethral length (FUL) and closing pressure (CP)) is assessed with the aid of an 8F Millar pressure transducer (Millar Instruments, Texas, US) inserted into the bladder through the external meatus. The urethral Millar pressure transducer is then retracted along the length of the urethra (urethral pull through) at a rate of 1 cm/min enabling the determination of PUP, FUL and CP. Urethral pull throughs are repeated every 6 min until at least 4 reproducible urethral profiles are observed. Subsequently increasing concentrations of test compound or vehicle is injected intravenously utilising either a bolus dose or constant infusion and at least a further 4 urethral pull throughs carried out at each concentration investigated. Changes in the PUP, FUL or CP are indicative of compound activity on lower urinary tract function. • Investigation of bladder capacity and external urethral sphincter (EUS) function in the spontaneously hypertensive rat:
was tested in the dog urethral pressure model (Test A) described above. The compound was dissolved in saline (vehicle) and administered by i.v. infusion over a period of 15 minutes, with at least 5 urethral pressure measurements being taken at each dose level during infusion and for 15 minutes post-infusion.

Structure (SMILES): CO[C@H]1CN(C(=O)[C@@H]2CN(c3cccnn3)C[C@H]2c2ccc(F)cc2F)CC[C@]1(OC)c1ccccc1 [Example 8]
- Mean peak urethral pressure (PUP) (dose 1.0 mg/kg): 32 mmHg
- Mean peak urethral pressure (PUP) (dose 2.0 mg/kg): 36 mmHg
- Mean peak urethral pressure (PUP) (dose 3.0 mg/kg): 35 mmHg
- PUP increase vs. baseline (dose 1.0 mg/kg): 7%
- PUP increase vs. baseline (dose 2.0 mg/kg): 20%
- PUP increase vs. baseline (dose 3.0 mg/kg): 17%
